For test [1], the target named is HIS-TGFβR2 WT (Homo sapiens, UniProt P37173). The test can be described thus: HTRF probe-displacement assay, HIS-TGFβR2 WT. The format is binding. A general note: In TR-FRET formats the signal depends on donor and acceptor labels being close together.
For test [2], the target named is T1, HIS-TGFβR1 T204D (Homo sapiens, UniProt P36897, T204D).
T1 sequence (P36897 34-503 T204D): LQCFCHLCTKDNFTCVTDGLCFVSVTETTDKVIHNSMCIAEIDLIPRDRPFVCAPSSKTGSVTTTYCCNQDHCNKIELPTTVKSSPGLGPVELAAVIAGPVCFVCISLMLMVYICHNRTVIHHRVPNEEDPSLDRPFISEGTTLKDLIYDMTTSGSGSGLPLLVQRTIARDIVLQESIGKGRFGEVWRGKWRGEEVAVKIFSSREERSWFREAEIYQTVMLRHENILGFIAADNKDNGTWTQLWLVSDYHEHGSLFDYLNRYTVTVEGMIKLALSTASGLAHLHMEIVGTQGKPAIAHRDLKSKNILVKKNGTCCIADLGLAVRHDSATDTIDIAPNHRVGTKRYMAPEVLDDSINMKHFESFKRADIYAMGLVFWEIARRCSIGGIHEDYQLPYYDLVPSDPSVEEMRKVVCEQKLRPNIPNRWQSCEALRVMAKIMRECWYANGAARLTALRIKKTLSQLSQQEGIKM
The experiment in a line: HTRF probe-displacement assay, HIS-TGFβR1 T204D. The format is binding. To be noted: read-out: TGFβR1 (μM) IC50.

HIS-TGFβR2 WT, sequence (P37173 23-567): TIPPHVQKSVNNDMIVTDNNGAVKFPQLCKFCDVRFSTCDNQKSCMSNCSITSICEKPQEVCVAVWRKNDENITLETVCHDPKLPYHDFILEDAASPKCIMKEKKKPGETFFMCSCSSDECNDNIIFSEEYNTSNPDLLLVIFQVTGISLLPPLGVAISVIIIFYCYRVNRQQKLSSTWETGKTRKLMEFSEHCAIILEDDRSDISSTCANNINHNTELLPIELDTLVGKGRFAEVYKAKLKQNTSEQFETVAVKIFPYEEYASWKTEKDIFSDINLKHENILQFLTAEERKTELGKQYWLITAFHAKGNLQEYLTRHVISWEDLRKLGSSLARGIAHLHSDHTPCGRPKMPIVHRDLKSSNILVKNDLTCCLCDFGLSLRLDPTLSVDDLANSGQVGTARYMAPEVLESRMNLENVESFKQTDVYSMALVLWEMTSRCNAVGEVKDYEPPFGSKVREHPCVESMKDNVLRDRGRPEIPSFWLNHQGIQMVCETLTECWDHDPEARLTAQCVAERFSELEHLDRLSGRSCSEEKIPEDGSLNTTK

`COc1cnc2c(-c3nc(C)ccc3F)c(-c3ccnc(NC(C)=O)c3)[nH]c2c1` [Example 111, N-(4-(3-(3-Fluoro-6-methylpyridin-2-yl)-6-methoxy-1H-pyrrolo[3,2-b]pyridin-2-yl)pyridin-2-yl)acetamide]: the IC50 in test [1] turned out to be 2.42 µM; in test [2] it was 0.002 µM.

Consider `[2H]C([2H])([2H])Oc1ccc(-c2c(-c3ccnc(NC(C)=O)c3)[nH]c3cc(OC)cnc23)nc1` [Example 112, N-(4-(6-Methoxy-3-(5-(methoxy-d3)pyridin-2-yl)-1H-pyrrolo[3,2-b]pyridin-2-yl)pyridin-2-yl)acetamide], for which the IC50 in test [1] is 8.75 µM; in test [2] it was 0.001 µM.

As for `COc1cnc2c(-c3ccc(OC(F)F)cn3)c(-c3ccnc(NC(C)=O)c3)[nH]c2c1` [Example 113, N-(4-(3-(5-(Difluoromethoxy)pyridin-2-yl)-6-methoxy-1H-pyrrolo[3,2-b]pyridin-2-yl)pyridin-2-yl)acetamide], the results for the IC50 in test [1] and in test [2] were 14.6 µM and 0.003 µM, respectively.

With `CC(=O)Nc1cc(-c2c(-c3cccc(C(F)F)n3)c3ncccc3n2CC(N)=O)ccn1` [Example 114, 2-(2-(2-Acetamidopyridin-4-yl)-3-(6-(difluoromethyl)pyridin-2-yl)-1H-pyrrolo[3,2-b]pyridin-1-yl)acetamide], the IC50 in test [1] is more than 15 µM; in test [2], 0.55 µM.

`COc1ccc(-c2c(-c3ccnc(NC(=O)CN(C)C)c3)[nH]c3cc(OC)cnc23)nc1` [Example 115, 2-(Dimethylamino)-N-{4-[6-methoxy-3-(5-methoxypyridin-2-yl)-1H-pyrrolo[3,2-b]pyridin-2-yl]pyridin-2-yl}acetamide]: the concentration for half-maximal inhibition (IC50) in test [1] came out at 8.68 µM; in test [2], 0.001 µM.

`COc1cnc2c(-c3cccc(C)n3)c(-c3ccnc(NC(=O)CN(C)C)c3)[nH]c2c1` [Example 116, 2-(Dimethylamino)-N-{4-[6-methoxy-3-(6-methylpyridin-2-yl)-1H-pyrrolo[3,2-b]pyridin-2-yl]pyridin-2-yl}acetamide]: the half-inhibitory concentration (IC50) in test [1] was 7.35 µM; in test [2] it was 0.005 µM.

`COc1cnc2c(-c3cccc(C(F)F)n3)c(-c3ccnc(NC(=O)CN(C)C)c3)[nH]c2c1` [Example 117, N-(4-{3-[6-(Difluoromethyl)pyridin-2-yl]-6-methoxy-1H-pyrrolo[3,2-b]pyridin-2-yl}pyridin-2-yl)-2-(dimethylamino)acetamide]: the half-maximal inhibitory concentration (IC50) in test [1] amounted to 11.3 µM; in test [2], 0.003 µM.

As to `COc1ccc(-c2c(-c3ccnc(NC(=O)CN4CCS(=O)(=O)CC4)c3)[nH]c3cc(OC)cnc23)nc1` [Example 118, 2-(1,1-Dioxidothiomorpholino)-N-{4-[6-methoxy-3-(5-methoxypyridin-2-yl)-1H-pyrrolo[3,2-b]pyridin-2-yl]pyridin-2-yl}acetamide], the values for the 50% inhibitory concentration (IC50) in test [1] and in test [2] were more than 15 µM and 0.002 µM, respectively.

In the case of `COc1ccc(-c2c(-c3ccnc(NC(=O)CN4CCN(C)CC4)c3)[nH]c3cc(OC)cnc23)nc1` [Example 119, N-{4-[6-Methoxy-3-(5-methoxypyridin-2-yl)-1H-pyrrolo[3,2-b]pyridin-2-yl]pyridin-2-yl}-2-(4-methylpiperazin-1-yl)acetamide], the concentration for half-maximal inhibition (IC50) in test [1] is more than 15 µM; in test [2] it was less than 0.001 µM.

As for `COc1ccc(-c2c(-c3ccnc(NC(=O)CN4CCN(CCO)CC4)c3)[nH]c3cc(OC)cnc23)nc1` [Example 120, 2-[4-(2-Hydroxyethyl)piperazin-1-yl]-N-{4-[6-methoxy-3-(5-methoxypyridin-2-yl)-1H-pyrrolo[3,2-b]pyridin-2-yl]pyridin-2-yl}acetamide], the IC50 in test [1] was more than 15 µM; in test [2] it was 0.001 µM.

As to `COc1ccc(-c2c(-c3ccnc(NC(=O)CN4CC[C@H](O)C4)c3)[nH]c3cc(OC)cnc23)nc1` [Example 121, 2-[(3S)-3-Hydroxypyrrolidin-1-yl]-N-{4-[6-methoxy-3-(5-methoxypyridin-2-yl)-1H-pyrrolo[3,2-b]pyridin-2-yl]pyridin-2-yl}acetamide], the IC50 in test [1] was more than 15 µM; in test [2], 0.001 µM.

Regarding `COc1cnc2c(-c3cccc(C)n3)c(-c3ccnc(NC(=O)CN4CCN(CCO)CC4)c3)[nH]c2c1` [Example 122, 2-[4-(2-Hydroxyethyl)piperazin-1-yl]-N-{4-[6-methoxy-3-(6-methy 1pyridin-2-yl)-1H-pyrrolo[3,2-b]pyridin-2-yl]pyridin-2-yl}acetamide], the IC50 was more than 15 µM in test [1] and 0.001 µM in test [2].

With `COc1cnc2c(-c3cccc(C(F)F)n3)c(-c3ccnc(NC(=O)CN4CCN(CCO)CC4)c3)[nH]c2c1` [Example 123, N-(4-{3-[6-(Difluoromethyl)pyridin-2-yl]-6-methoxy-1H-pyrrolo[3,2-b]pyridin-2-yl}pyridin-2-yl)-2-[4-(2-hydroxyethyl)piperazin-1-yl]acetamide], the IC50 in test [1] is more than 15 µM; in test [2] it was less than 0.001 µM.

Regarding `COC(=O)Nc1cc(-c2[nH]c3cc(OC)cnc3c2-c2ccc(OC)cn2)ccn1` [Example 124, Methyl N-{4-[6-methoxy-3-(5-methoxypyridin-2-yl)-1H-pyrrolo[3,2-b]pyridin-2-yl]pyridin-2-yl}carbamate], the IC50 in test [1] was 12.8 µM; in test [2], 0.001 µM.

With `CCOc1ccnc2c(-c3cccc(C(F)F)n3)c(-c3ccnc(NC(C)=O)c3)[nH]c12` [Example 125, N-(4-{3-[6-(Difluoromethyl)pyridin-2-yl]-7-ethoxy-1H-pyrrolo[3,2-b]pyridin-2-yl}pyridin-2-yl)acetamide], the IC50 in test [1] was more than 15 µM; in test [2] it was 0.003 µM.

For the compound `CC(=O)Nc1cc(-c2[nH]c3c(OCCN4CCCC4)ccnc3c2-c2cccc(C(F)F)n2)ccn1` [Example 126, N-(4-{3-[6-(Difluoromethyl)pyridin-2-yl]-7-[2-(pyrrolidin-1-yl)ethoxy]-1H-pyrrolo[3,2-b]pyridin-2-yl}pyridin-2-yl)acetamide], the IC50 in test [1] is more than 15 µM; in test [2] it was 0.009 µM.

As for `C=Cc1ccnc2c(-c3cccc(C(F)F)n3)c(-c3ccnc(NC(C)=O)c3)[nH]c12` [Example 127, N-(4-{3-[6-(Difluoromethyl)pyridin-2-yl]-7-ethenyl-1H-pyrrolo[3,2-b]pyridin-2-yl}pyridin-2-yl)acetamide], the IC50 in test [1] was 6.65 µM; in test [2] it was 0.001 µM.

Take `CC(=O)Nc1cc(-c2[nH]c3c(-c4ccnn4C)ccnc3c2-c2cccc(C(F)F)n2)ccn1` [Example 129, N-(4-{3-[6-(Difluoromethyl)pyridin-2-yl]-7-(1-methyl-1H-pyrazol-5-yl)-1H-pyrrolo[3,2-b]pyridin-2-yl}pyridin-2-yl)acetamide]: the IC50 is more than 15 µM in test [1] and 0.007 µM in test [2].

For `CC(=O)Nc1cc(-c2[nH]c3c(-c4c(C)noc4C)ccnc3c2-c2cccc(C(F)F)n2)ccn1` [Example 130, N-(4-{3-[6-(Difluoromethyl)pyridin-2-yl]-7-(dimethyl-1,2-oxazol-4-yl)-1H-pyrrolo[3,2-b]pyridin-2-yl}pyridin-2-yl)acetamide], the IC50 in test [1] was more than 15 µM; in test [2], 0.004 µM.

As to `COCCCc1ccnc2c(-c3cccc(C(F)F)n3)c(-c3ccnc(NC(C)=O)c3)[nH]c12` [Example 131, N-(4-{3-[6-(Difluoromethyl)pyridin-2-yl]-7-(3-methoxypropyl)-1H-pyrrolo[3,2-b]pyridin-2-yl}pyridin-2-yl)acetamide], the figures for the IC50 in test [1] and in test [2] were 3.84 µM and 0.001 µM, respectively.

With `CCCc1ccnc2c(-c3cccc(C(F)F)n3)c(-c3ccnc(NC(C)=O)c3)[nH]c12` [Example 132, N-(4-{3-[6-(Difluoromethyl)pyridin-2-yl]-7-propyl-1H-pyrrolo[3,2-b]pyridin-2-yl}pyridin-2-yl)acetamide], the IC50 in test [1] was more than 15 µM; in test [2], 0.001 µM.

For the compound `CC(=O)Nc1cc(-c2[nH]c3c(C(C)C)ccnc3c2-c2cccc(C(F)F)n2)ccn1` [Example 133, N-(4-{3-[6-(Difluoromethyl)pyridin-2-yl]-7-(propan-2-yl)-1H-pyrrolo[3,2-b]pyridin-2-yl}pyridin-2-yl)acetamide], the IC50 was more than 15 µM in test [1] and 0.001 µM in test [2].

As for `CC(=O)Nc1cc(-c2[nH]c3c(C4CCCCO4)ccnc3c2-c2cccc(C(F)F)n2)ccn1` (stereo not shown) [Example 134, N-(4-{3-[6-(Difluoromethyl)pyridin-2-yl]-7-(oxan-2-yl)-1H-pyrrolo[3,2-b]pyridin-2-yl}pyridin-2-yl)acetamide], the results for the IC50 in test [1] and in test [2] were 8.66 µM and 0.004 µM, respectively.

As to `CC(=O)Nc1cc(-c2[nH]c3c(C4CCOCC4)ccnc3c2-c2cccc(C(F)F)n2)ccn1` [Example 135, N-(4-{3-[6-(Difluoromethyl)pyridin-2-yl]-7-(oxan-4-yl)-1H-pyrrolo[3,2-b]pyridin-2-yl}pyridin-2-yl)acetamide], the IC50 is more than 15 µM in test [1] and 0.003 µM in test [2].

Take `CC(=O)Nc1cc(-c2[nH]c3c(C4CCOCC4)ccnc3c2-c2cccc(C)n2)ccn1` [Example 136, N-{4-[3-(6-Methylpyridin-2-yl)-7-(oxan-4-yl)-1H-pyrrolo[3,2-b]pyridin-2-yl]pyridin-2-yl}acetamide]: the IC50 in test [1] is more than 15 µM; in test [2], 0.006 µM.

Regarding `CC(=O)Nc1cc(-c2[nH]c3c(C4CCN(C)CC4)ccnc3c2-c2cccc(C(F)F)n2)ccn1` [Example 137, N-(4-{3-[6-(Difluoromethyl)pyridin-2-yl]-7-(1-methylpiperidin-4-yl)-1H-pyrrolo[3,2-b]pyridin-2-yl}pyridin-2-yl)acetamide], the values for the IC50 in test [1] and in test [2] were more than 15 µM and 0.058 µM, respectively.

Usually IC50 stands for the concentration that inhibits the measured activity by half.

(Values after patent US9708316B2 (BRISTOL-MYERS SQUIBB COMPANY, priority 2014, dated 2017).)
